Measurements: PubChem BioAssay AID1508591

Details: rat; liver microsomes; pH 7.4; 15.0 min; 1.0 µM

Compound	half-life [min]
O=c1cc(-c2nc(Nc3ccc(F)c(F)c3)c3ccccc3n2)cc[nH]1	> 30
CCOC(=O)c1csc(NC(=O)c2ccncc2NS(=O)(=O)c2ccc(C)cc2)n1	1.9
O=C(Nc1ccc(OC(F)(F)F)cc1)c1sccc1NCc1ccnc2ccccc12	18.7
NC(=O)C1CCN(c2nc(-c3ccc(F)cc3)cs2)CC1	7.09
O=C(N/N=C/c1ccc(Sc2ccccn2)o1)c1ccncc1	> 30
CC1(C)C[C@@H]2C[C@@](C)(CN2S(=O)(=O)c2ccc(C(=O)Nc3ccc(Cl)c(S(=O)(=O)N4CCOCC4)c3)cc2)C1	3.95
Cc1ccc(S(=O)(=O)Nc2ccc(C)cc2C(=O)Nc2nc(-c3ccccc3)cs2)cc1	3.7
CC(=O)c1ccc(N[S+](=O)([O-])c2cccc(NC(=O)c3[nH]c(C)c(C(C)=O)c3C)c2)cc1	21
Cc1cc(NS(=O)(=O)c2ccc(NCCc3ccc(Cl)c(Cl)c3)cc2)no1	12
Cc1ccc(S(=O)(=O)Nc2ccccc2C(=O)Nc2nc(-c3ccccc3)c(Br)s2)cc1	10
COC(=O)c1cc(Cl)ccc1NC(=O)CSc1ncc(S(=O)(=O)c2ccc(Br)cc2)c(=O)[nH]1	18
Cc1ccc(S(=O)(=O)Nc2cnccc2C(=O)Nc2nc(-c3ccc(Cl)c(Cl)c3)cs2)cc1	> 30
COc1cc(Cl)c(C)cc1NS(=O)(=O)c1c(C)nc2sccn2c1=O	1.53
O=S(=O)(Nc1nccs1)c1ccc(NCc2cccc(O)c2)cc1	> 30
Cc1ccc(S(=O)(=O)Nc2ccc(Cl)cc2C(=O)Nc2nc(-c3ccccc3)cs2)cc1	3.4
Cc1noc(C)c1-c1cc2c(cc(C)n2C)c(-c2cnn(C)c2)n1	> 30
Cn1c(=O)c2c(nc(Cl)n2Cc2ccc(Cl)cc2)n(C)c1=O	> 30
Nc1scc2c(C(=O)O)nn(-c3ccccc3)c(=O)c12	> 30
CCc1cccc(C)c1Nc1c(-c2ccc(N(C)C)cc2)nc2ncccn12	4.23
O=S(=O)(Nc1nccs1)c1ccc(NCc2cc(F)ccc2O)cc1	12
Cc1ccc(S(=O)(=O)Nc2cnccc2C(=O)Nc2cccc3ccccc23)cc1	5.6
COCc1cc(C)nc(SCC(=O)c2ccc(O)c(O)c2)c1C#N	19
CC1=Nc2cc(C(=O)NCc3ccccc3Cl)ccc2Sc2c(C)ccc(C)c21	1.96
CC(C)Oc1cccc(-c2cnc(N3CCC(C(N)=O)CC3)s2)c1	23
CN1CCN(C(c2ccccc2)c2ccc(Cl)cc2)CC1 (stereo not given)	3
Fc1ccc(CNc2ncnc3onc(-c4ccc(F)cc4)c23)cc1	28

Continued, values first:

half-life [min]	Compound
4	COc1cccc(NS(=O)(=O)c2ccc(NCc3cccc(OC)c3O)cc2)c1
8.98	COc1cccc(Nc2ncc(-c3cccc(N(C)C)c3)c3c2OCC3)c1
12	Cc1ccc(Nc2nc(-c3ccncc3)nc3ccccc23)cc1F
> 30	NC(=O)COc1ccc(C2CC(=O)Nc3n[nH]c(Nc4ccccc4)c32)cc1 (stereo not given)
> 30	Cc1ccc(-c2csc(Nc3ccc(S(=O)(=O)Nc4nccs4)cc3)n2)cc1C
8.24	CCOC(=O)c1ccc(N2C(=O)c3n[nH]c(-c4ccco4)c3C2c2ccc(C)cc2)cc1 (stereo not given)
> 30	O=C(Nc1ccc([S+](=O)([O-])Nc2nccs2)cc1)c1ccn[nH]1
> 30	COc1ccnc(NC(=S)N2CCN(c3cccc(C(F)(F)F)c3)CC2)c1
> 30	Cc1ccc(-c2cc(C(=O)Nc3ccc(S(N)(=O)=O)cc3)c3cccc(C)c3n2)cc1C
1.7	Clc1ccccc1-c1nnc2sc(-c3ccc4c(c3)OCO4)nn12
1.47	COc1ccc(Cn2c(CCC(=O)Nc3cc(C)cc(C)c3)nc3cccnc32)cc1
11	FC(F)(F)c1cccc(Sc2nc(-c3ccccc3)nnc2C(F)(F)F)c1
3.2	Cc1noc(C)c1-c1ccc2ncnc(NCc3ccc4[nH]ccc4c3)c2c1
> 30	CCC(CC)(NC(=O)C(C)C)C(=O)N[C@@H](CCCN=C(N)N)C(=O)NC1(C(=O)NC(c2ccc(F)cc2)c2ccc(F)cc2)CCCC1
